Test results: patent EP0778023B1, “Product comprising rapamycin or particular derivatives and an NMDA or AMPA antagonist for use for the treatment of epilepsy or Huntington's Disease, and the use of rapamycin or particular derivatives for the manufacture of a medicament for the treatment of epilepsy or Huntington's Disease” (Wyeth, priority 1995, dated 1997)

Key:
[1] = test system: rat hippocampal and cortical cultures (hippocampal neurons); experiment: glutamate induced toxicity in hippocampal cultures, count of live neurons; assay type: cell-based; conditions: 30 µM glutamate
Description: (§1) Briefly, rat hippocampal and cortical cultures were prepared according to the method of Furshpan and Potter with some modifications. [Neuron 3:199 (1989)]. Brains were removed from newborn Long Evans pups anesthetized with an injection of 0.1 ml of 20% chloral hydrate. The hippocampi were dissected out and separated from the rest of the cortex. Both tissues were enzymatically digested in 5 ml Earle's Balanced Salt Solution (EBSS) containing 20 u/ml papain, 1 mM L-cysteine, and 0.5 mM EDTA for 30 minutes at 37°C with gentle rocking. The hippocampi and cortical tissues were then washed once with EBSS and the digestion was stopped by incubating at 37°C for 30 minutes with 3-5 mis of inhibitor solution containing 1 mg/ml ovomucoid and 1 mg/ml albumin in EBSS. The digested hippocampi and cortical tissues were washed twice with DME without L-glutamine with 4.5 g/L dextrose before being triturated in 2 ml of DME supplemented with 5% fetal calf serum, 5% rat serum, 50 u/ml penicillin, 0.05 mg/ml streptomycin and MlTO+ serum extender [a medium supplement from Collaborative Biomedical Products] (10% DME). After 50 triturations, undissociated tissue was allowed to settle and the dissociated cell suspension was removed. A fresh 2 ml of 10% DME was added to the remaining tissue and the trituration was repeated. The two cell suspension aliquots were pooled and the cell density was determined with a hemacytometer.
(§2) 30,000 hippocampal cells in 150 µL were plated per well in 96-well plates and incubated at 37°C in 5% CO2. Cortical cells were plated at a density of 500,000 cells per well in 24-well plates. When glia cells were confluent (after approximately 3 days), 4-10 µM cytosine β-D-arabinofuranoside was added to each well to prevent further proliferation. One week after plating, the medium was removed and replaced with DME supplemented with 2.5% fetal calf serum, 2.5% rat serum, 50 u/ml penicillin, 0.05 mg/ml streptomycin, MITO+, 1 mM kynurenate and 10 mM MgCl2 (5% DME + KM). Kynurenate is a nonspecific blocker of glutamate receptors and elevated levels of magnesium block calcium and sodium influx through NMDA receptor channels. The addition of KM prevents neurotoxicity that occurs with glutamate found in serum, and allows neurons to be maintained in culture for up to several months. The cells were fed weekly by exchanging half the medium with fresh 5% DME + KM.
The compound to be evaluated was dissolved in DMSO to make 10 mM stock solutions and stored in aliquots at -80°C. Just before each procedure was carried out, aliquots of the stock solutions were thawed and diluted in DME or Hanks' Balanced Salt Solution (HBSS) containing 44 mM sodium bicarbonate, 10 mM glucose, and 30 µM glutamate to obtain test concentrations from 1 nM to 10 µM.
After 4-12 weeks in culture, hippocampal cells were washed three times and fed with test compound in HBSS, or serum free DME (SF DME) and 30 to 150 µM glutamate. At least three wells in every test procedure were treated with each drug concentration. 30 µM Glutamate kills 70-80% of the neurons in younger cultures, and more in older cultures. The toxicity induced by 30 µM glutamate was blocked by 1 mM kynurenate + 10 mM MgCl2 (KM).
Following overnight incubation at 37°C, the number of live hippocampal neurons remaining in five fields, representing the north, south, east, and west extremes and the center of each well, were counted. Each field was visualized through a 10x objective with a 15x eyepiece and was approximately 1.54 mm^2 in area. Conditions were generally done in triplicate. The mean number of neurons per well and the standard deviation for each condition were calculated. The mean number of neurons remaining in the control 30 µM glutamate condition reflects those that were not sensitive to glutamate toxicity.

Cortical neurons = experiment: ischemia induced neurotoxicity in cortical cultures with NMDA and AMPA inhibitors, LDH activity; assay type: cell-based, rat; conditions: 1 week old cortical cell cultures
Description: as §1, §2
Cortical neurons were washed six times with DME without glucose that has been deoxygenated by bubbling the medium with 95% N2/5% CO2 for at least 10 minutes, to induce an ischemic state that will cause neuronal cell death that can be observed by measuring lactate dehydrogenase levels, as the amount of LDH activity in each well is directly correlated with the number of dead cells. 100 µM [2-(8,9-Dioxo-2,6-diazabicyclo[5.2.0]non-1(7)-en-2-yl)-ethyl]-phosphonic acid (disclosed in U.S. Patent 5,168,103 and 10 µM YM90K were added to certain wells to block NMDA and AMPA glutamate receptors, respectively. To test wells, 1 µM of the compound of Example 1 was added. Control wells were washed with normal DME with glucose and 100 µM [2-(8,9-dioxo-2,6-diazabicyclo[5.2.0]non-1(7)-en-2-yl)ethyl]phosphonic acid. 5 µL samples were taken from each well at different time points following ischemia and the LDH activity in those samples was determined by adding 250 µL of 2 mg NADH/25 mL phosphate buffer to each sample. After incubating for 20-30 minutes, 10 µL of 22.7 mM pyruvate was added and the optical density (OD) at 340 nm read. The change in optical density with time (mOD/min) reflects the amount of LDH in the sample. Higher optical density changes means more LDH activity indicating more cell death. Samples were taken from 4-8 wells per condition and the average and standard deviation for each condition and time point determined.

[2] = 2 nM test compound, HBSS, overnight incubation
[3] = 20 nM test compound, HBSS, overnight incubation
[4] = 200 nM test compound, HBSS, overnight incubation
[5] = Time 8 hours, test compound administered with the NMDA and AMPA inhibitors
[6] = Time 13 hours, with the NMDA and AMPA inhibitors
[7] = Time 24 hours, with the NMDA and AMPA inhibitors
[8] = Time 30 hours, with the NMDA and AMPA inhibitors

Compound	No. Neurons Alive [1, 2]	No. Neurons Alive [1, 3]	No. Neurons Alive [1, 4]	LDH Activity (Cortical neurons; [5])	LDH Activity (Cortical neurons; [6])	LDH Activity (Cortical neurons; [7])	LDH Activity (Cortical neurons; [8])	No. Neurons Alive ([1]; 1 mM, HBSS, overnight incubation (second table))	No. Neurons Alive ([1]; 1 mM, SF DME, overnight incubation (first table))	No. Neurons Alive ([1]; 10nM test compound, SF DME, overnight incubation, mean per well (five fields))	No. Neurons Alive ([1]; 100nM test compound, SF DME, overnight incubation)	No. Neurons Alive ([1]; 1µM test compound, SF DME, overnight incubation)	No. Neurons Alive ([1]; 10µM test compound, SF DME, overnight incubation)
Rapamycin-O-benzyl-27-oxime [Example 5]	131	96	135	0.74 mOD/min	1.65 mOD/min	4.82 mOD/min	8.83 mOD/min	–	–	–	–	–	–
Rapamycin 1,3-Diels Alder adduct with methyltriazolinedione [Example 4]	117	130	157	0.91 mOD/min	2.54 mOD/min	8.21 mOD/min	13.31 mOD/min	–	–	–	–	–	–
O=C(O)c1cc(O)c2ccccc2n1 [Kynurenate, kynurenate, reference compound]	–	–	–	–	–	–	–	202	82	–	–	–	–
CO[C@H]1C[C@@H]2CC[C@@H](C)[C@@](O)(O2)C(=O)C(=O)N2CCCC[C@H]2C(=O)O[C@H]([C@H](C)C[C@@H]2CC[C@@H](O)[C@H](OC)C2)CC(=O)[C@H](C)/C=C(\C)[C@@H](O)[C@@H](OC)C(=O)[C@H](C)C[C@H](C)/C=C/C=C/C=C/1C [Example 1, Rapamycin]	63	71	229	1.04 mOD/min	3.08 mOD/min	9.00 mOD/min	14.02 mOD/min	–	–	114	92	46	47
Rapamycin 1,3, Diels Alder adduct with Phenyltriazolinedione [Example 2]	110	180	127	1.08 mOD/min	2.31 mOD/min	7.69 mOD/min	12.43 mOD/min	–	–	–	–	–	–
CO[C@H]1C[C@@H]2CC[C@@H](C)[C@@](O)(O2)C(=O)C(=O)N2CCCC[C@H]2C(=O)O[C@H]([C@H](C)C[C@@H]2CC[C@@H](OS(=O)(=O)c3ccc(N=Nc4ccc(N(C)C)cc4)cc3)[C@H](OC)C2)CC(=O)[C@H](C)/C=C(\C)[C@@H](O)[C@@H](OC)C(=O)[C@H](C)C[C@H](C)/C=C/C=C/C=C/1C [Example 3, Rapamycin 42-ester with 4-[[4-(dimethylamino)phenyl]azo]benzenesulfonic acid]	98	285	241	0.84 mOD/min	2.36 mOD/min	7.03 mOD/min	11.25 mOD/min	–	–	–	–	–	–
